US8328898B2, “Environment-friendly carbon-nano synergistic complex fertilizers” (priority 2007, dated 2012)

Legend:
[1] = tested on: corn Jiyuan No. 1; assay: Corn field experiment; format: in vivo; settings: for Ear weight in the whole area: fresh weight of corn
From the text: Experiments below are preceded with general fertilizing amount, and using the same fertilizing amount and the same fertilizing methods. 2.

[2] = not told
[3] = tested on: winter wheat Beinong 9549; assay: Winter wheat field experiment, demonstration park of high quality agricultural products center; format: in vivo; settings: for Increase rate: vs control; for Average production per mu: winter wheat Beinong 9549, repeated 3 times
Experimental: Experiments below are preceded with general fertilizing amount, and using the same fertilizing amount and the same fertilizing methods. […] The Agricultural Science Research Institute of […] District, Beijing • D. Qingyundian Station, the Agricultural Science Research Institute of […] District, Bejing • (2) Experimental protocols and production determination of winter wheat in every experimental site […] Production is determined on Jun.

[4] = tested on: tomato Jinpengshengguan; assay: Tomato production experiment (Experiment 11); format: in vivo
[5] = tested on: Ventura celery; assay: Celery production experiment
[6] = tested on: winter wheat 9428; assay: Winter wheat field experiment, Qingyundian Station; format: in vivo; settings: for Production per mu: winter wheat 9428
From the text: (§1) Experiments below are preceded with general fertilizing amount, and using the same fertilizing amount and the same fertilizing methods.

[7] = tested on: winter wheat Jing411; assay: Winter wheat field experiment, Agricultural Science Research Institute of Daxing District; format: in vivo; settings: for Production increasing rate (comparing with control): in vivo; for Average production per mu: winter wheat Jing411
From the text: as §1

[8] = tested on: eggplant; assay: Production increasing effects on eggplant (Experiment 9); format: in vivo
[9] = comparing with ordinary ammonium bicarbonate (ABC)
[10] = eggplant seedling, 0.0165 kg fertilizer per plant

NC(N)=O [URA, urea]
Ear weight in the whole area [1]: 38.1 kg | Production increasing rate comparing with urea ([1]; in vivo): 0% | Average of N2O—N annual emission flux [2]: 71.92 μg N2O/m^3-h | N2O—N annual emission flux range [2]: −197-2867 μg N2O/m^3-h | N2O—N emission flux/nitrogen fertilizer applied [2]: 1.98% | Increase rate [3]: 17.07% | Average production per mu [3]: 487 kg | Production increasing rate ([4]; control = 0): 9.80% | Average area production ([4]; during growth of tomato, repeated 6 times): 109.65 kg | Increasing rate comparing with urea ([5]; equal weight as urea): 0% | Average fresh weight of plants ([5]; equal weight of fertilizers): 11.55 kg/20 plants | Fresh weight of celery per mu ([5]; in vivo): 7703.85 kg | Increase rate comparing with control ([5]; in vivo): 30.2% | Production increased per mu ([5]; over control): 1787.56 kg | Production increasing rate ([6]; control = 0): 10.39% | Production increasing rate ([6]; general fertilizer = 0): 5.99% | Production per mu [6]: 425 kg | Production increasing rate (comparing with control) [7]: 0.28% | Average production per mu [7]: 328.67 kg

ammonium bicarbonate [ABC]
Ear weight in the whole area [1]: 39.6 kg | Production increasing rate comparing with ammonium bicarbonate ([1]; in vivo): 0% | Production increasing rate comparing with urea ([1]; in vivo): 4.07% | Increasing rate of eggplant fruit weight [8, 9]: 0% | Increasing rate of leaf number [8, 9]: 0% | Increasing rate of plant height [8, 9]: 0% | Leaf number 1 ([8]; eggplant seedling): 15 number | Leaf number 2 ([8]; eggplant seedling): 33 number | Leaf number 3 ([8]; eggplant seedling): 4 number | Leaf number 4 ([8]; eggplant seedling): 26 number | Leaf number 5 ([8]; eggplant seedling): 28 number | Leaf number 6 ([8]; eggplant seedling): 15 number | Leaf number 7 ([8]; eggplant seedling): 28 number | Plant height 1 [8, 10]: 64 cm | Plant height 2 [8, 10]: 64 cm | Plant height 3 [8, 10]: 32 cm | Plant height 4 [8, 10]: 75 cm | Plant height 5 [8, 10]: 65 cm | Plant height 6 [8, 10]: 61 cm | Plant height 7 [8, 10]: 62 cm | Average height ([8]; eggplant seedling, 7 plants): 56.72 cm | Average leaf number ([8]; eggplant seedling, 7 plants): 21.28 number | Eggplant fruit weight ([8]; in vivo): 1.46 kg | Increasing weight of eggplant fruit ([8]; over ordinary ammonium bicarbonate (ABC)): 0 kg | Increase rate [3]: 15.63% | Average production per mu [3]: 481 kg | Production increasing rate ([6]; control = 0): 3.12% | Production per mu [6]: 397 kg | Production increasing rate (comparing with control) [7]: 3.33% | Average production per mu [7]: 338.69 kg
